In experiment [1] the target is T1, Dihydroorotate dehydrogenase (quinone), mitochondrial (Homo sapiens, UniProt Q02127). Put plainly: Inhibition of N-terminally truncated human DHODH (Met30 to Arg396 residues) expressed in Escherichia coli BL21 (DE3) using dihydroorotate as substrate preincubated for 5 mins followed by substrate addition measured every 30 secs for 6 mins by DCIP-based spectrophotometric assay.

Experiment [2] has as its target T1, Dihydroorotate dehydrogenase (quinone), mitochondrial.
Description: Binding affinity to N-terminally truncated human DHODH (Met30 to Arg396 residues) expressed in Escherichia coli BL21 (DE3) assessed as association rate constant by surface plasmon resonance assay
Experiment [3] has the same target. The source holds these as a separate data set.
Description: Binding affinity to N-terminally truncated human DHODH (Met30 to Arg396 residues) expressed in Escherichia coli BL21 (DE3) assessed as change in melting temperature at 100 uM by fluorescence-based thermal shift assay
Experiment [4] has the same target. As to the kind of experiment: Binding affinity to N-terminally truncated human DHODH (Met30 to Arg396 residues) expressed in Escherichia coli BL21 (DE3) by surface plasmon resonance assay. On the technique in general: Surface plasmon resonance follows binding to a sensor surface in real time, without labels.
For experiment [5] the target is unchanged. As to the kind of experiment: Binding affinity to N-terminally truncated human DHODH (Met30 to Arg396 residues) expressed in Escherichia coli BL21 (DE3) assessed as dissociation rate constant by surface plasmon resonance assay.

T1 sequence (Q02127 whole entry, the tested form may be a part): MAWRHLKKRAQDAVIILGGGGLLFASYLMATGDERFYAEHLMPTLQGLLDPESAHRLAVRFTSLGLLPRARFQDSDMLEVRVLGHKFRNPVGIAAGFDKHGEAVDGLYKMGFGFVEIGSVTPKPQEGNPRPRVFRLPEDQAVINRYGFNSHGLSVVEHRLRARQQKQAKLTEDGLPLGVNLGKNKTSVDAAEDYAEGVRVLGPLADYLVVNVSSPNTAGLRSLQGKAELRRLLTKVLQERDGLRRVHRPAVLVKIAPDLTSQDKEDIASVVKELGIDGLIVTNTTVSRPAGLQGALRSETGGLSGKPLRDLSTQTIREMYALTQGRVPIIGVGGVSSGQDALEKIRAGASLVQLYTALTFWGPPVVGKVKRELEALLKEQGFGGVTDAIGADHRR

`CCCCOc1cccc(-c2cc(C(=O)O)c3ccccc3n2)c1` returned an IC50 in experiment [1] of 1310 nM. For the compound `O=C(O)c1cc(-c2ccc(Cl)cc2Cl)nc2ccc(Br)cc12`, in experiment [1], the IC50 was found to be 666 nM. In turn, `CC(C)c1ccc(-c2cc(C(=O)O)c3cc(Br)ccc3n2)cc1` showed an IC50 in experiment [1] of 136 nM.

Consider `CCCCc1ccc(-c2cc(C(=O)O)c3ccccc3n2)cc1`, for which it took 437 nM to reach half-maximal inhibition in experiment [1] (IC50). In experiment [1], `COC(=O)c1cc(-c2ccc(OC)c(OC)c2)nc2ccccc12` displayed an IC50 of 3250 nM. As to `O=C(O)c1cc(-c2ccc3c(c2)OCO3)nc2ccccc12`, in experiment [1], the midpoint of inhibition, the IC50, lay at 5180 nM. In experiment [1], `O=C(O)c1cc(-c2ccc(Cl)c(Cl)c2)nc2ccc(Br)cc12` had an IC50 of 57.1 nM.

In experiment [1], `Cc1c(-c2ccc(C(C)C)cc2)nc2ccccc2c1C(=O)O` registered an IC50 of 1570 nM.

The compound `CCC(C)c1ccc(-c2nc3ccc(Br)cc3c(C(=O)O)c2C)cc1` (stereo not drawn) registered a Ka in experiment [2] of 5.99 ×10⁵ /M/s. Also, the ΔTm in experiment [3] worked out at 16.6 °C. In addition, the Kd in experiment [4] is 12 nM. This compound also had a 50% inhibitory concentration (IC50) in experiment [1] of 9.7 nM. Besides, the koff in experiment [5] is given as 7.58 ×10⁻³ /s.

One may read the IC50 as the concentration at which inhibition is half-maximal. Lower therefore signals higher potency. One may read the ΔTm as the change in melting temperature against a reference sample. Broadly, the Kd is the constant that tells how readily two partners part at equilibrium. A lower Kd goes with tighter binding.

Source of the values: ChEMBL document CHEMBL3817841, “Biological evaluation of quinoline derivatives as inhibitors of human dihydroorotate dehydrogenase” (Medchemcomm, 2016).
